Results reported in PMC8620715, “Biological Activity of Triazolopyrimidine Copper(II) Complexes Modulated by an Auxiliary N-N-Chelating Heterocycle Ligands” (Molecules, 2021).

Columns and labels:
BJ cells = experiment: Lactate dehydrogenase (LDH) release assay, BJ cells; type: cell-based, human
Experimental: Membrane integrity after peptide treatment was assessed based on LDH release using a CytoTox 96 Non-Radioactive Cytotoxicity Assay (Promega), as previously described. […] Maximal LDH release was obtained by complete cell lysis induced by using 1% of Triton X-100. The absorption resulting from LDH activity was measured in a microplate reader Mithras 940 (Berthold) at 490 nm, and the % LDH was calculated as: [(corrected absorbance of the LDH released in treated cells)/(corrected absorbance of the total LDH released)] * 100%.

E. coli 25922 = experiment: MIC by broth microdilution; type: cell-based, Escherichia coli; conditions: E. coli 25922, planktonic
Experimental: (§1) The antibacterial assays were carried out using two Gram-negative (Escherichia coli ATCC 25922, Pseudomonas aeruginosa ATCC 27853) and two Gram-positive (Staphylococcus aureus ATCC 25923, MRSA (meticillin-Resistant S. aureus) 388 (ATCC, American Type Culture Collection) bacteria.
(§2) The antimicrobial activity of the two complexes (1) and (2) was assessed using their minimum inhibitory concentration (MIC) by the broth microdilution method, as previously described by the Clinical and Laboratory Standard Institute (CLSI; M07-A9 document). A broth microdilution assay was performed in sterile 96-well plates using Muller-Hinton broth (Scharlau; MHB). The compounds solubilized in […] (1,000 μg/mL) were serially diluted in 90 μL MHB, in concentrations ranging between 500 and 0.97 μg/mL. Overnight cultures were used to prepare suspension in phosphate-buffered saline (pH 7.0) to match a 0.5 McFarland density. The bacterial suspensions were further diluted to 1:100 by adding 0.1 mL of bacterial suspension to 9.9 mL of MHB. A volume of 10 μL of this dilution was added to each well of columns 1–10, containing different concentrations of the tested compounds. […] Additionally, 10 μL of the diluted bacterial suspension was added in column 11 (the growth control). A volume of 100 μL MHB was added to the microtiter plates’ sterility control wells (column 12). After inoculation, the plates were incubated at 35 ± 2 °C for 18 h. Growth was measured as light absorbance (620 nm) in comparison to an uninoculated well (negative control). It was detected using a microtiter plate reader (Apollo LB 911ELISA (Berthold Technologies GmbH & Co. KG, Waltham, MA, USA)). The MIC of each compound was defined as the lowest concentration required to inhibit bacterial growth.

Saccharomyces cerevisiae = type: cell-based; conditions: for sensitivity of sod1Δ and sod2Δ to menadione: 0.1 mM, SC medium; for sensitivity of sod1Δ and sod2Δ to menadione / lysine auxotrophy of sod1Δ cells (growth in SC-Lys medium): 16 h; for lysine auxotrophy of sod1Δ cells (growth in SC-Lys medium): various concentrations; for growth of yeast cells (WT, sod1Δ, sod2Δ): concentrations up to 2 mM
Experimental: The Saccharomyces cerevisiae laboratory strain BY4741 (MATa; his3Δ1; leu2Δ0; met15Δ0; ura3Δ0) considered wild type (WT), and the isogenic strains sod1Δ and sod2Δ lacking the genes SOD1 (encoding Cu/Zn-superoxide dismutase) and SOD2 (encoding Mn-superoxide dismutase) were obtained from EUROSCARF (Frankfurt, Germany). Cells were maintained, manipulated and grown in a rich medium (YPD, 1% w/v yeast extract, 2% w/v peptone, 2% w/v glucose; 2% w/v agar was added for solid media) or on synthetic complete medium (SC, 0.67% w/v yeast nitrogen base without amino acids, 2% w/v glucose) supplemented with the necessary amino acids. Lysine drop-out medium (SC-Lys) was prepared similarly to SC, omitting lysine from the recipe. We added the complexes to autoclaved media from DMSO sterile stocks (10 mM). An overnight culture was 10^3-fold diluted in fresh medium and incubated (200 rpm, 30 °C) until the culture reached a density of 5 × 10^5 cells. The compounds were added to the desired concentrations, and culture growth was monitored at 660 nm in a 96-well multi-scanner plate reader equipped with a thermostat and shaker (Varioskan, Thermo Fischer Scientific, Vantaa, Finland). Three biological replicates were set for all determinations, and data were presented as average ± standard error (SE). The Saccharomyces cerevisiae laboratory strain BY4741 (MATa; his3Δ1; leu2Δ0; met15Δ0; ura3Δ0) considered wild type (WT), and the isogenic strains sod1Δ and sod2Δ lacking the genes SOD1 (encoding Cu/Zn-superoxide dismutase) and SOD2 (encoding Mn-superoxide dismutase) were purchased from EUROSCARF (Frankfurt, Germany). Cells were maintained and manipulated and grown in YPD medium (1% w/v yeast extract, 2% w/v peptone, 2% w/v glucose; 2% w/v agar was added for solid media). Complexes were added to autoclaved media from DMSO sterile stocks (10 mM). To determine the effect of compounds on yeast growth, a fresh overnight pre-culture was 10^3-fold diluted in YPD and incubated (200 rpm, 30 °C) until the culture reached a density of 5 × 10^5 cells/mL. The compounds were added at the desired concentrations, and cell proliferation was monitored at 660 nm in a 96-well multi-scanner auto reader plate reader equipped with a thermostat and shaker (Varioskan Thermo Fischer Scientific, Vantaa, Finland). All determinations were done on three biological replicates.

P. aeruginosa 27853 = experiment: MIC by broth microdilution; type: cell-based, Pseudomonas aeruginosa; conditions: P. aeruginosa 27853, planktonic
Experimental: as §1, §2

λ-DNA = experiment: UV-visible absorption titration with λ-DNA; type: binding, bacteriophage lambda; conditions: 5 µM complex, increasing DNA
Experimental: To determine if the compounds can interact with DNA, the 48,500 base-pairs genomic DNA from bacteriophage lambda (λ-DNA, Promega, MA, USA) was used. A stock solution of 10 µM λ-DNA (base-pair concentration) was prepared in 10 mMTris/HCl buffer containing 1 mM NaCl, pH 8.
To determine the DNA intercalating ability of complexes (1) and (2), we used the 48,500 base-pairs genomic DNA from the bacteriophage lambda (λ-DNA, Promega, Madison, USA). A 10 µM λ-DNA (base-pair concentration) stock solution was prepared in 10 mM Tris/HCl buffer, pH 8, containing 1 mM NaCl. The UV-visible absorption titration experiments were done using a constant complex concentration (5 µM). […] After DNA addition, the solutions were left to equilibrate for 5 min at room temperature before recording the spectra with a Jasco V-630 spectrophotometer. Stock solutions of compounds (1) and (2) were prepared in DMSO (1 mM) and diluted to 5 µM in 10 mM Tris/HCl containing 1 mM NaCl, pH 8.
The UV-Vis absorption titration experiments were done, keeping the complex concentration constant ([…]) and increasing the concentration of λ-DNA in Tris-HCl/NaCl buffer solution at room temperature until a saturation state was achieved. After DNA addition, the solutions were allowed to equilibrate for 5 min at room temperature. The UV-Vis absorption spectra were recorded with a Jasco V-630 spectrophotometer, using a 10 mm quartz cell. […]

## Cc1cc(C)n2ncnc2n1.Cc1cc(C)n2ncnc2n1.Cc1cc(C)n2ncnc2n1.O.[Cu+2].[O-][Cl+3]([O-])([O-])[O-].[O-][Cl+3]([O-])([O-])[O-].c1cnc2c(c1)ccc1cccnc12 [Complex (2), [Cu(phen)(dmtp)2(OH2)](ClO4)2·dmtp]
BJ cells; 24 h
  membrane integrity (LDH release): not affected
BJ cells; 48 h
  LDH release: around 20%
E. coli 25922
  MIC: 340 µM
Saccharomyces cerevisiae
  sensitivity of sod1Δ and sod2Δ to menadione: alleviated the sensitivity of sod1Δ and sod2Δ to menadione
  lysine auxotrophy of sod1Δ cells (growth in SC-Lys medium): improved the growth of sod1Δ mutants
  growth of yeast cells (WT, sod1Δ, sod2Δ): not affected
P. aeruginosa 27853
  MIC: 690 µM
λ-DNA
  change of absorption spectrum on binding to λ-DNA: decrease in the absorption intensity

## Cc1cc(C)n2ncnc2n1.Cc1cc(C)n2ncnc2n1.Cc1cc(C)n2ncnc2n1.O.[Cu+2].[O-][Cl+3]([O-])([O-])[O-].[O-][Cl+3]([O-])([O-])[O-].c1ccc(-c2ccccn2)nc1 [Complex (1), [Cu(bpy)(dmtp)2(OH2)](ClO4)2·dmtp]
BJ cells; 24 h and 48 h
  membrane integrity (LDH release): did not affect the membrane integrity
E. coli 25922
  MIC: 710 µM
Saccharomyces cerevisiae
  sensitivity of sod1Δ and sod2Δ to menadione: alleviated the sensitivity of sod1Δ and sod2Δ to menadione
  lysine auxotrophy of sod1Δ cells (growth in SC-Lys medium): improved the growth of sod1Δ mutants
  growth of yeast cells (WT, sod1Δ, sod2Δ): not affected
P. aeruginosa 27853
  MIC: 710 µM
λ-DNA
  change of absorption spectrum on binding to λ-DNA: decrease in the absorption intensity
